{
  "source": "patent US20090232735A1",
  "about": "“USE OF FRUCTOSE-BASED THERAPIES FOR THE TREATMENT OF CANCER” (CEDARS-SINAI MEDICAL CENTER, priority 2005, published 2009)",
  "key": {"[1]": {"system": "GLUT-5 mRNA", "assay": "GLUT-5 mRNA by quantitative real-time RT-PCR in MCF-7 cells", "type": "cell-based, human", "experimental": "FIG. 10 depicts GLUT-5 expression levels in accordance with an embodiment of the present invention. MCF-7 breast cancer cells were incubated in 2 mM glucose (Glu), 5.5 mM glucose (Glu) or 5.5 mM fructose (Fru) for 4 or 24 hours, after which GLUT-5 expression was quantified using real-time RT-PCR, normalized to GAPDH levels, and expressed as fold-increase compared to GLUT-5 levels detected in MCF-7 cells cultured in 2 mM glucose for a similar time period.\nCellular fructose uptake is facilitated by a member of solute carrier family 2, called glucose transporter type 5 (GLUT-5). Following incubation of MCF-7 breast cancer cells in 2 mM, 5.5 mM glucose or 5.5 mM fructose for […], total RNA was harvested, and analyzed by quantitative real-time RT-PCR analysis using GLUT-5 specific primers to quantify GLUT-5 mRNA expression. GLUT-5 expression was normalized to GAPGH mRNA expression, and expressed as fold-change in comparison to control breast cancer cells incubated in 2 mM glucose for 4, and 24 hours."}, "[2]": {"system": "AP-1 activation in a primary culture of a pancreatic tumor", "assay": "AP-1 probe binding assay, primary pancreatic tumor culture", "type": "cell-based, human", "settings": "5.5 mM sugar", "experimental": "FIG. 24 depicts luciferase activity of PANC-1 cells and primary culture of surgically resected pancreatic tumor cells in accordance with an embodiment of the present invention. PANC-1 pancreatic cancer cells and a primary culture of a surgically resected pancreatic tumor were incubated in 2 mM glucose, 5.5 mM glucose or 5.5 mM fructose for 48 h, after which nuclear extracts were incubated with a biotinylated AP-1 probe, and detected by an antibody-linked colorimetric method. *, p<0.01\nIn separate experiments PANC-1 cells, and primary cultures of surgically resected pancreatic tumors were incubated in 2 mM glucose, or 5.5 mM glucose or 5.5 mM fructose for 48 h, after which nuclear extracts were incubated with a biotinylated AP-1 probe in binding buffer. AP-1/AP1 probe complexes were next conjugated to a streptavidin-coated assay plate and detected using an AP-1 specific antibody, followed by binding of a horseradish-peroxidase conjugated secondary antibody, and detection by a colorimetric reagent."}, "[3]": {"system": "transketolase (TKK)", "assay": "Transketolase expression by Western blot in PANC-1 cells", "type": "cell-based, human", "settings": "PANC-1, 5.5 mM fructose, 24 h and 48 h", "experimental": "FIG. 33 depicts Western blot analysis of transketolase expression in pancreatic cancer PANC-1 cells following incubation in 2 mM glucose (lanes 1 & 4), 5.5 mM glucose (lanes 2 & 5), and 5.5 mM fructose for 24 h, and 48 h, respectively, in accordance with an embodiment of the present invention. Quantitation of TKK protein levels is depicted in the lower panel.\nThe inventors believe that fructose-treatment of pancreatic cancer cells led to an increase in TKK-driven nucleic acid synthesis, and thus fructose-treatment would result in an increase in either PANC-1 TKK expression and/or activity in comparison to equivalent glucose concentrations. Western blot analysis on protein lysates derived from fructose-, and glucose-treated PANC-1 cells were performed (5.5 mM fructose, and glucose for 24, and 48 h as per previous protocol) using a specific TKK antibody, and compared TKK expression in the fructose-, and glucose-treated PANC-1 cells. […] After gentle mixing the absorbance of the mixture was measured at 10 min intervals for 2 h at 340 nm. Transketolase activity was then derived from the difference in absorbance at 10, and 80 minutes, and expressed as nmol/min/million cells. […] Pancreatic cancer proliferation rates were then measured using the MTS assay (FIG. 35)."}, "[4]": {"system": "pancreatic cancer development", "settings": "cited from earlier work"}},
  "data": [
    {"smiles": "O=C(CO)[C@@H](O)[C@H](O)[C@H](O)CO", "note": "[fructose]", "values": [
      {"measurement": "increase in GLUT-5 mRNA compared to cells in 5.5 mM glucose", "setting": "[1]; MCF-7, 5.5 mM fructose, 24 hour incubation", "value": "two-fold increase"},
      {"measurement": "change in GLUT-5 mRNA expression", "setting": "[1]; MCF-7, 4 hours, vs 2 mM glucose", "value": "no significant change"},
      {"measurement": "increase in AP-1 activation compared to 2 mM glucose", "setting": "[2]", "value": 2.1, "unit": "fold"},
      {"measurement": "TKK levels higher than 5.5 mM glucose-treated cells", "setting": "[3]", "value": "~2", "unit": "fold"},
      {"measurement": "relative risk of pancreatic cancer", "setting": "[4]; high fructose intake, women with increased BMI (>25) or sedentary lifestyle", "value": 3.17},
      {"measurement": "increased risk of pancreatic cancer development", "setting": "[4]; women reporting a high fructose-intake", "value": 57, "unit": "%"}
    ]}
  ]
}
